One block for each compound: values may come before it.
Experiments:
[1] = Cmax in Sprague-Dawley rat at 2 mg/kg, po by LC-MS/MS analysis; format: ADME, organism-based; set-up: dose 2 mg/kg, route oral; details: in vivo
[2] = AUC in Sprague-Dawley rat at 2 mg/kg, po by LC-MS/MS analysis; format: ADME, organism-based; details: in vivo
[3] = Oral bioavailability in Sprague-Dawley rat at 2 mg/kg by LC-MS/MS analysis; format: ADME, organism-based; details: in vivo
[4] = Fraction unbound in Sprague-Dawley rat plasma; format: ADME, cell-free
[5] = Cardiotoxicity in arterially perfused rabbit cardiac left ventricular wedge assessed as change in QT interval at 0.3 uM by electrophysiology assay; format: toxicity, tissue-based, Oryctolagus cuniculus, Heart left ventricle
[6] = Cardiotoxicity in arterially perfused rabbit cardiac left ventricular wedge assessed as change in QT interval at 1 uM by electrophysiology assay; format: toxicity, tissue-based, Oryctolagus cuniculus, Heart left ventricle
[7] = Cardiotoxicity in arterially perfused rabbit cardiac left ventricular wedge assessed as change in QT interval at 3 uM by electrophysiology assay; format: toxicity, tissue-based, Oryctolagus cuniculus, Heart left ventricle
[8] = Cardiotoxicity in arterially perfused rabbit cardiac left ventricular wedge assessed as change in QT interval at 10 uM by electrophysiology assay; format: toxicity, tissue-based, Oryctolagus cuniculus, Heart left ventricle
[9] = Cardiotoxicity in arterially perfused rabbit cardiac left ventricular wedge assessed as prolongation of QT interval by electrophysiology assay; format: toxicity, tissue-based, Oryctolagus cuniculus, Heart left ventricle
[10] = Cardiotoxicity in arterially perfused rabbit cardiac left ventricular wedge assessed as Tp-e interval time at 0.3 uM by electrophysiology assay (reference value: 59.2 +/- 4.8 milliseconds); format: toxicity, tissue-based, Oryctolagus cuniculus, Heart left ventricle
[11] = Cardiotoxicity in arterially perfused rabbit cardiac left ventricular wedge assessed as Tp-e interval time at 1 uM by electrophysiology assay (reference value: 59.2 +/- 4.8 milliseconds); format: toxicity, tissue-based, Oryctolagus cuniculus, Heart left ventricle
[12] = Cardiotoxicity in arterially perfused rabbit cardiac left ventricular wedge assessed as Tp-e interval time at 3 uM by electrophysiology assay (reference value: 59.2 +/- 4.8 milliseconds); format: toxicity, tissue-based, Oryctolagus cuniculus, Heart left ventricle
[13] = Cardiotoxicity in arterially perfused rabbit cardiac left ventricular wedge assessed as Tp-e interval time at 10 uM by electrophysiology assay (reference value: 59.2 +/- 4.8 milliseconds); format: toxicity, tissue-based, Oryctolagus cuniculus, Heart left ventricle
[14] = Cardiotoxicity in arterially perfused rabbit cardiac left ventricular wedge assessed as QRS interval time at 0.3 uM by electrophysiology assay (reference value: 33.9 +/- 2.7 milliseconds); format: toxicity, tissue-based, Oryctolagus cuniculus, Heart left ventricle
[15] = Cardiotoxicity in arterially perfused rabbit cardiac left ventricular wedge assessed as QRS interval time at 1 uM by electrophysiology assay (reference value: 33.9 +/- 2.7 milliseconds); format: toxicity, tissue-based, Oryctolagus cuniculus, Heart left ventricle
[16] = Cardiotoxicity in arterially perfused rabbit cardiac left ventricular wedge assessed as QRS interval time at 3 uM by electrophysiology assay (reference value: 33.9 +/- 2.7 milliseconds); format: toxicity, tissue-based, Oryctolagus cuniculus, Heart left ventricle
[17] = Cardiotoxicity in arterially perfused rabbit cardiac left ventricular wedge assessed as QRS interval time at 10 uM by electrophysiology assay (reference value: 33.9 +/- 2.7 milliseconds); format: toxicity, tissue-based, Oryctolagus cuniculus, Heart left ventricle
[18] = Cardiotoxicity in arterially perfused rabbit cardiac left ventricular wedge assessed as change in isometric contractile force at 0.3 uM by electrophysiology assay (reference value: 0%); format: toxicity, tissue-based, Oryctolagus cuniculus, Heart left ventricle
[19] = Cardiotoxicity in arterially perfused rabbit cardiac left ventricular wedge assessed as change in isometric contractile force at 1 uM by electrophysiology assay (reference value: 0%); format: toxicity, tissue-based, Oryctolagus cuniculus, Heart left ventricle
[20] = Cardiotoxicity in arterially perfused rabbit cardiac left ventricular wedge assessed as change in isometric contractile force at 3 uM by electrophysiology assay (reference value: 0%); format: toxicity, tissue-based, Oryctolagus cuniculus, Heart left ventricle
[21] = Cardiotoxicity in arterially perfused rabbit cardiac left ventricular wedge assessed as change in isometric contractile force at 10 uM by electrophysiology assay (reference value: 0%); format: toxicity, tissue-based, Oryctolagus cuniculus, Heart left ventricle
[22] = Cardiotoxicity in arterially perfused rabbit cardiac left ventricular wedge assessed as Tp-e interval by electrophysiology assay; format: toxicity, tissue-based, Oryctolagus cuniculus, Heart left ventricle
[23] = Clearance in Sprague-Dawley rat at 1.1 mg/kg, iv or 2 mg/kg, po by LC-MS/MS analysis; format: ADME, organism-based; details: in vivo
[24] = Volume of distribution at steady state in Sprague-Dawley rat at 1.1 mg/kg, iv or 2 mg/kg, po by LC-MS/MS analysis; format: ADME, organism-based; details: in vivo, read-out: Vdss
[25] = Half life in Sprague-Dawley rat at 1.1 mg/kg, iv by LC-MS/MS analysis; format: ADME, organism-based; details: in vivo
[26] = Clearance in Beagle dog at 1.1 mg/kg, iv or 2 mg/kg, po by LC-MS/MS analysis; format: ADME, organism-based, Canis lupus familiaris; details: in vivo
[27] = Volume of distribution at steady state in Beagle dog at 1.1 mg/kg, iv or 2 mg/kg, po by LC-MS/MS analysis; format: ADME, organism-based, Canis lupus familiaris; details: in vivo, read-out: Vdss
[28] = Half life in Beagle dog at 1.1 mg/kg, iv by LC-MS/MS analysis; format: ADME, organism-based, Canis lupus familiaris; details: in vivo
[29] = Cmax in Beagle dog at 2 mg/kg, po by LC-MS/MS analysis; format: ADME, organism-based, Canis lupus familiaris; set-up: dose 2 mg/kg, route oral; details: in vivo
[30] = AUC in Beagle dog at 2 mg/kg, po by LC-MS/MS analysis; format: ADME, organism-based, Canis lupus familiaris; details: in vivo
[31] = Oral bioavailability in Beagle dog at 2 mg/kg by LC-MS/MS analysis; format: ADME, organism-based, Canis lupus familiaris; details: in vivo
[32] = Fraction unbound in Beagle dog plasma; format: ADME, cell-free, Canis lupus familiaris
[33] = system: Rattus norvegicus; assay: Time at which plasma concentration stays above in vitro human whole blood IC50 in Crl:CD(SD) rat peritonitis model at 2 mg/kg, po; format: ADME, organism-based; details: in vivo
[34] = Clearance in Sprague-Dawley rat at 2 mg/kg, iv or 2 mg/kg, po by LC-MS/MS analysis; format: ADME, organism-based; details: in vivo
[35] = Volume of distribution at steady state in Sprague-Dawley rat at 2 mg/kg, iv or 2 mg/kg, po by LC-MS/MS analysis; format: ADME, organism-based; details: in vivo, read-out: Vdss
[36] = Half life in Sprague-Dawley rat at 2 mg/kg, iv by LC-MS/MS analysis; format: ADME, organism-based; details: in vivo
[37] = Half life in Sprague-Dawley rat at 1 mg/kg, iv by LC-MS/MS analysis; format: ADME, organism-based; details: in vivo

Cmax [1]: 740 ng/mL
AUC [2]: 2400 ng·h/mL
bioavailability [3]: 85%
fraction unbound [4]: 0.055
clearance [23]: 12 mL/min/kg
Vd [24]: 1.1 L/kg
half-life [25]: 3.1 h
clearance [26]: 20 mL/min/kg
Vd [27]: 3.5 L/kg
half-life [28]: 2.5 h
Cmax [29]: 330 ng/mL
AUC [30]: 1900 ng·h/mL
bioavailability [31]: 96%
fraction unbound [32]: 0.163
Time [33]: 24 h
SMILES: COc1cc2nccc(Nc3n[nH]c(C)c3C)c2cc1S(=O)(=O)C(C)(C)C
Activity [5]: 2%
Activity [6]: 3.6%
Activity [7]: 6.4%
Activity [8]: 9.3%
Activity [9]: Dose-dependent effect
Time [10]: 64.2 ms
Time [11]: 67.9 ms
Time [12]: 73.3 ms
Time [13]: 77 ms
Time [14]: 34.9 ms
Time [15]: 35.4 ms
Time [16]: 35.2 ms
Time [17]: 36.3 ms
Activity [18]: -9.9%
Activity [19]: -17.3%
Activity [20]: -22.6%
Activity [21]: -28%
Activity [22]: Dose-dependent effect

clearance [34]: 12 mL/min/kg
Vd [35]: 2.1 L/kg
half-life [36]: 4.2 h
Cmax [1]: 990 ng/mL
AUC [2]: 3800 ng·h/mL
bioavailability [3]: 82%
fraction unbound [4]: 0.112
SMILES: Cc1[nH]nc(Nc2ccnc3ccc(S(=O)(=O)C(C)(C)C)cc23)c1C

half-life [37]: 7 h
fraction unbound [4]: 0.026
Time [33]: 4 h
SMILES: CC(C)(C)S(=O)(=O)c1ccc2nccc(Nc3n[nH]c4ccc(F)cc34)c2c1
